Like-named read-outs stand apart in the source and are kept apart here.
Legend:
5HT2B receptors = target: T1, 5HT2B receptors (Homo sapiens, UniProt P41595); assay: Human 5-HT2B functional high throughput screening assay in CHO-K1 cells (calcium flux); assay type: cell-based; conditions: for EC50: CHO-K1 cells, calcium flux
T1 construct: expressed in transfected cells; host or cells: CHO-K1 cells
In short: (§1)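 Serum-starved CHO-K1 cells carrying the receptor; Ca4 dye, 60 min RT. Test compound added after a 10 s baseline, fluorescence followed for 3 min. EC50 from 4-parameter fit; Emax given as % of serotonin effect.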

5HT2C receptors = target: T2, 5HT2C receptors (Homo sapiens, UniProt P28335); assay: Human 5-HT2C functional high throughput screening assay in CHO-K1 cells (calcium flux); assay type: cell-based; set-up: expressed in transfected cells; host or cells: CHO-K1 cells; conditions: for Emax: CHO-K1, 5-HT2C, maximum functional response as percentage relative to the effect of serotonin; for EC50: CHO-K1 cells, calcium flux
T2 sequence (P28335 33-458): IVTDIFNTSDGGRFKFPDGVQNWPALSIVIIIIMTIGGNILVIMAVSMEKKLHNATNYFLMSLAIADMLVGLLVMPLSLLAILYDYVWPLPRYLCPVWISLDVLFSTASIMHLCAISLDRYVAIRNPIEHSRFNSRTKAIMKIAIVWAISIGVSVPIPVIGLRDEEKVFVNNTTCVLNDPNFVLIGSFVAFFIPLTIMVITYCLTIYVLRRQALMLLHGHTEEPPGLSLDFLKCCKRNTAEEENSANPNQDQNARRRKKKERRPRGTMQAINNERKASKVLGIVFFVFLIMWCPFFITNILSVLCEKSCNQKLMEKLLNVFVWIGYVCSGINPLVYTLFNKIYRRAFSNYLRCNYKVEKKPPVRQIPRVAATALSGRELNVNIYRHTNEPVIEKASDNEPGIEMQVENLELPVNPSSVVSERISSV
In short: as §1

[1] = 5-HT2B agonist activity, read-out: EC50
[2] = 5-HT2B, maximum functional response as percentage relative to the effect of serotonin
[3] = 5-HT2C agonist activity, read-out: EC50

T1 sequence (P41595 whole entry): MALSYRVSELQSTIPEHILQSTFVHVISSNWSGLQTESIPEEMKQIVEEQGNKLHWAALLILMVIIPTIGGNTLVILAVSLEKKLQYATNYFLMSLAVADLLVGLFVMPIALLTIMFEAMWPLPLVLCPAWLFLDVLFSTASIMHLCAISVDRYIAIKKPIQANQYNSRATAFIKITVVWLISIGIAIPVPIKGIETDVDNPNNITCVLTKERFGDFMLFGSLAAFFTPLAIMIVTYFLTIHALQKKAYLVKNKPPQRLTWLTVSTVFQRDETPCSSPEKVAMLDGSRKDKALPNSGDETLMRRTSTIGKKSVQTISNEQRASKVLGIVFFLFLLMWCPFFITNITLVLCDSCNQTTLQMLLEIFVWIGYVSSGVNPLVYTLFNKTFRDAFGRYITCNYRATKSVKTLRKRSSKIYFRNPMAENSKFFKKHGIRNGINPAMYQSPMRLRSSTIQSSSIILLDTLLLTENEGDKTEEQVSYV

`COc1cccc(-c2ccc3c(c2)C(=O)NC[C@@H]2CN(C)C[C@@H]32)c1` (relative stereo) [Example 133, Trans-8-(3-methoxyphenyl)-2-methyl-1,2,3,3a,4,5-hexahydrobenzo[e]pyrrolo[3,4-c]azepin-6(10bH)-one] was tested, and the EC50 (5HT2B receptors; [1]) was > 10000 nM, the Emax (5HT2B receptors; [2]) was “inactive” and the Emax (5HT2C receptors; read-out: Emax) was > 120%.

`CC(C)COc1cccc(-c2ccc3c(c2)C(=O)NC[C@@H]2CN(C)C[C@@H]32)c1` (relative stereo) [Example 134, Trans-8-(3-isobutoxyphenyl)-2-methyl-1,2,3,3a,4,5-hexahydrobenzo[e]pyrrolo[3,4-c]azepin-6(10bH)-one] was tested, and the EC50 (5HT2B receptors; [1]) was > 10000 nM, the Emax (5HT2B receptors; [2]) was “inactive” and the EC50 (5HT2C receptors; [3]) was 60 nM. The Emax (5HT2C receptors; read-out: Emax) was > 120%.

In the case of `COc1ccc2c(c1)C(=O)NC[C@@H]1CNC[C@H]21` (relative stereo) [Example 135, Cis-8-methoxy-1,2,3,3a,4,5-hexahydrobenzo[e]pyrrolo[3,4-c]azepin-6(10bH)-one], the EC50 (5HT2B receptors; [1]) is reported as > 10000 nM, the Emax (5HT2B receptors; [2]) is reported as “inactive” and the EC50 (5HT2C receptors; [3]) is reported as 800 nM. For the same compound, the Emax (5HT2C receptors) was > 120%.

With `O=C1NC[C@@H]2CN(Cc3ccccc3)C[C@H]2c2ccc(-c3nnco3)cc21` (relative stereo) [Example 136, Trans-2-benzyl-8-(1,3,4-oxadiazol-2-yl)-1,2,3,3a,4,5-hexahydrobenzo[e]pyrrolo[3,4-c]azepin-6(10bH)-one] the EC50 (5HT2B receptors; [1]) was > 10000 nM, the Emax (5HT2B receptors; [2]) was “inactive” and the EC50 (5HT2C receptors; [3]) was 2000 nM. The Emax (5HT2C receptors; read-out: Emax) was 110%.

With `COc1ccccc1-c1ccc2c(c1)C(=O)NC[C@@H]1CN(C)C[C@@H]21` (relative stereo) [Example 137, Trans-8-(2-methoxyphenyl)-2-methyl-1,2,3,3a,4,5-hexahydrobenzo[e]pyrrolo[3,4-c]azepin-6(10bH)-one] the EC50 (5HT2B receptors; [1]) was > 10000 nM, the Emax (5HT2B receptors; [2]) was “inactive” and the EC50 (5HT2C receptors; [3]) was 100 nM. For the same compound, the Emax (5HT2C receptors; read-out: Emax) was > 120%.

With `CC(C)c1ccc(-c2ccc3c(c2)C(=O)NC[C@@H]2CN(C)C[C@@H]32)cc1` (relative stereo) [Example 138, Trans-8-(4-isopropylphenyl)-2-methyl-1,2,3,3a,4,5-hexahydrobenzo[e]pyrrolo[3,4-c]azepin-6(10bH)-one] the EC50 (5HT2B receptors; [1]) was > 10000 nM, the Emax (5HT2B receptors; [2]) was “inactive” and the EC50 (5HT2C receptors; [3]) was 100 nM. For the same compound, the Emax (5HT2C receptors; read-out: Emax) was > 120%.

For `CCc1ccc(-c2ccc3c(c2)C(=O)NC[C@@H]2CN(C)C[C@@H]32)cc1` (relative stereo) [Example 139, Trans-8-(4-ethylphenyl)-2-methyl-1,2,3,3a,4,5-hexahydrobenzo[e]pyrrolo[3,4-c]azepin-6(10bH)-one], the EC50 (5HT2B receptors; [1]) was > 10000 nM, the Emax (5HT2B receptors; [2]) was “inactive” and the EC50 (5HT2C receptors; [3]) was 30 nM. The Emax (5HT2C receptors; read-out: Emax) was > 120%.

For `CN1C[C@H]2CNC(=O)c3cc(-c4ccc(OC(F)(F)F)cc4)ccc3[C@@H]2C1` (relative stereo) [Example 140, Trans-2-methyl-8-(4-(trifluoromethoxy)phenyl)-1,2,3,3a,4,5-hexahydrobenzo[e]pyrrolo[3,4-c]azepin-6(10bH)-one], the EC50 (5HT2B receptors; [1]) was > 10000 nM, the Emax (5HT2B receptors; [2]) was “inactive” and the EC50 (5HT2C receptors; [3]) was 60 nM. The Emax (5HT2C receptors; read-out: Emax) was > 120%.

With `Nc1ccc2c(c1)C(=O)NC[C@@H]1CN(Cc3ccccc3)C[C@@H]21` (relative stereo) [Example 141, Trans-8-amino-2-benzyl-1,2,3,3a,4,5-hexahydrobenzo[e]pyrrolo[3,4-c]azepin-6(10bH)-one] the EC50 (5HT2B receptors; [1]) was > 10000 nM, the Emax (5HT2B receptors; [2]) was “inactive” and the EC50 (5HT2C receptors; [3]) was 600 nM. The Emax (5HT2C receptors; read-out: Emax) was > 120%.

With `Nc1ccc2c(c1)C(=O)NC[C@@H]1CN(Cc3ccccc3)C[C@H]21` (relative stereo) [Example 142, Cis-8-amino-2-benzyl-1,2,3,3a,4,5-hexahydrobenzo[e]pyrrolo[3,4-c]azepin-6(10bH)-one] the EC50 (5HT2B receptors; [1]) was > 10000 nM, the Emax (5HT2B receptors; [2]) was “inactive” and the EC50 (5HT2C receptors; [3]) was 2000 nM. For the same compound, the Emax (5HT2C receptors; read-out: Emax) was 80%.

`CN1C[C@H]2CNC(=O)c3cc(-c4cccnc4)ccc3[C@@H]2C1` (relative stereo) [Example 143, Trans-2-methyl-8-(pyridin-3-yl)-1,2,3,3a,4,5-hexahydrobenzo[e]pyrrolo[3,4-c]azepin-6(10bH)-one] was tested, and the EC50 (5HT2B receptors; [1]) was > 10000 nM, the Emax (5HT2B receptors; [2]) was “inactive” and the EC50 (5HT2C receptors; [3]) was 300 nM. For the same compound, the Emax (5HT2C receptors) was > 120%.

In the case of `Nc1ccc2c(c1)C(=O)NC[C@@H]1CNC[C@@H]21` (relative stereo) [Example 144, Trans-8-amino-1,2,3,3a,4,5-hexahydrobenzo[e]pyrrolo[3,4-c]azepin-6(10bH)-one], the Emax (5HT2B receptors; CHO-K1) is reported as 60%, the EC50 (5HT2B receptors; EC50, 5-HT2B agonist activity) is reported as 1000 nM and the Emax (5HT2C receptors) is reported as > 120%. The EC50 (5HT2C receptors; EC50, 5-HT2C agonist activity) was 100 nM.

For `Nc1ccc2c(c1)C(=O)NC[C@@H]1CNC[C@H]21` (relative stereo) [Example 145, Cis-8-amino-1,2,3,3a,4,5-hexahydrobenzo[e]pyrrolo[3,4-c]azepin-6(10bH)-one], the Emax (5HT2B receptors; [2]) was “inactive”, the EC50 (5HT2B receptors; EC50, 5-HT2B agonist activity) was > 10000 nM and the Emax (5HT2C receptors) was 15%. For the same compound, the EC50 (5HT2C receptors; EC50, 5-HT2C agonist activity) was 3000 nM.

With `O=C1NC[C@@H]2CNC[C@H]2c2ccc(OCc3cccc(F)c3)cc21` (relative stereo) [Example 146, Trans-8-(3-fluorobenzyloxy)-1,2,3,3a,4,5-hexahydrobenzo[e]pyrrolo[3,4-c]azepin-6(10bH)-one] the Emax (5HT2B receptors; CHO-K1) was 15%, the EC50 (5HT2B receptors; EC50, 5-HT2B agonist activity) was 1000 nM and the Emax (5HT2C receptors) was > 120%. The EC50 (5HT2C receptors; EC50, 5-HT2C agonist activity) was 0.8 nM.

`O=C1NC[C@@H]2CNC[C@H]2c2ccc(OCc3ccccc3F)cc21` (relative stereo) [Example 147, Trans-8-(2-fluorobenzyloxy)-1,2,3,3a,4,5-hexahydrobenzo[e]pyrrolo[3,4-c]azepin-6(10bH)-one] was tested, and the Emax (5HT2B receptors; [2]) was “inactive”, the EC50 (5HT2B receptors; EC50, 5-HT2B agonist activity) was > 10000 nM and the Emax (5HT2C receptors) was > 120%.

With `O=C1NC[C@@H]2CNC[C@H]2c2ccc(OCc3ccccc3C(F)(F)F)cc21` (relative stereo) [Example 148, Trans-8-(2-(trifluoromethyl)benzyloxy)-1,2,3,3a,4,5-hexahydrobenzo[e]pyrrolo[3,4-c]azepin-6(10bH)-one] the EC50 (5HT2B receptors; [1]) was > 10000 nM, the Emax (5HT2B receptors; [2]) was “inactive” and the EC50 (5HT2C receptors; [3]) was 0.9 nM. For the same compound, the Emax (5HT2C receptors; read-out: Emax) was > 120%.

In the case of `O=C1NC[C@@H]2CN(Cc3ccccc3)C[C@H]2c2ncccc21` (relative stereo) [Example 151, Trans-9-benzyl-7,7a,8,9,10,10a-hexahydropyrido[2,3-e]pyrrolo[3,4-c]azepin-5(6H)-one], the Emax (5HT2B receptors; [2]) is reported as “inactive”, the EC50 (5HT2B receptors; EC50, 5-HT2B agonist activity) is reported as > 10000 nM and the Emax (5HT2C receptors) is reported as > 120%. It also gave an EC50 (5HT2C receptors; EC50, 5-HT2C agonist activity) of 70 nM.

`O=C1NC[C@@H]2CN(Cc3ccccc3)C[C@H]2c2cnccc21` (relative stereo) [Example 152, Trans-2-benzyl-1,2,3,3a,4,5-hexahydropyrido[3,4-e]pyrrolo[3,4-c]azepin-6(10bH)-one] was tested, and the EC50 (5HT2B receptors; [1]) was > 10000 nM, the Emax (5HT2B receptors; [2]) was “inactive” and the EC50 (5HT2C receptors; [3]) was 2000 nM. For the same compound, the Emax (5HT2C receptors) was 50%.

In the case of `O=C1NC[C@@H]2CNC[C@H]2c2ncccc21` (relative stereo) [Example 153, Trans-7,7a,8,9,10,10a-hexahydropyrido[2,3-e]pyrrolo[3,4-c]azepin-5(6H)-one], the Emax (5HT2B receptors; CHO-K1) is reported as 30%, the EC50 (5HT2B receptors; EC50, 5-HT2B agonist activity) is reported as > 10000 nM and the Emax (5HT2C receptors) is reported as > 120%. For the same compound, the EC50 (5HT2C receptors; EC50, 5-HT2C agonist activity) was 80 nM.

With `O=C1NC[C@@H]2CN(Cc3ccccc3)C[C@H]2c2cccnc21` (relative stereo) [Example 154, Trans-2-benzyl-1,2,3,3a,4,5-hexahydropyrido[3,2-e]pyrrolo[3,4-c]azepin-6(10bH)-one] the EC50 (5HT2B receptors; [1]) was > 10000 nM, the Emax (5HT2B receptors; [2]) was “inactive” and the EC50 (5HT2C receptors; [3]) was 2000 nM. The Emax (5HT2C receptors) was 90%.

For `O=C1NC[C@@H]2CNC[C@H]2c2cccnc21` (relative stereo) [Example 157, Trans-1,2,3,3a,4,5-hexahydropyrido[3,2-e]pyrrolo[3,4-c]azepin-6(10bH)-one], the EC50 (5HT2B receptors; [1]) was > 10000 nM, the Emax (5HT2B receptors; [2]) was “inactive” and the EC50 (5HT2C receptors; [3]) was 3000 nM. It also gave an Emax (5HT2C receptors) of 110%.

In the case of `CN1C[C@H]2CNC(=O)c3cc(OCc4ccccc4F)ccc3[C@@H]2C1` (relative stereo) [Example 164, Trans-8-(2-fluorobenzyloxy)-2-methyl-1,2,3,3a,4,5-hexahydrobenzo[e]pyrrolo[3,4-c]azepin-6(10bH)-one], the EC50 (5HT2B receptors; [1]) is reported as > 10000 nM, the Emax (5HT2B receptors; [2]) is reported as “inactive” and the EC50 (5HT2C receptors; [3]) is reported as 700 nM. The Emax (5HT2C receptors; read-out: Emax) was 50%.

For `CCC(C)Oc1ccc2c(c1)C(=O)NC[C@@H]1CNC[C@@H]21` (relative stereo) [Example 165, Trans-8-sec-butoxy-1,2,3,3a,4,5-hexahydrobenzo[e]pyrrolo[3,4-c]azepin-6(10bH)-one], the Emax (5HT2B receptors; [2]) was “inactive”, the EC50 (5HT2B receptors; EC50, 5-HT2B agonist activity) was > 10000 nM and the Emax (5HT2C receptors) was > 120%. For the same compound, the EC50 (5HT2C receptors; EC50, 5-HT2C agonist activity) was 80 nM.

With `CC(C)COc1ccc2c(c1)C(=O)NC[C@@H]1CNC[C@@H]21` (relative stereo) [Example 166, Trans-8-isobutoxy-1,2,3,3a,4,5-hexahydrobenzo[e]pyrrolo[3,4-c]azepin-6(10bH)-one] the Emax (5HT2B receptors; [2]) was “inactive”, the EC50 (5HT2B receptors; EC50, 5-HT2B agonist activity) was > 10000 nM and the Emax (5HT2C receptors) was > 120%.
